Data taken from patent US9056111B1, “Selective efflux inhibitors and related pharmaceutical compositions and methods of treatment” (STC.UNM, priority 2011, dated 2015).
≈ marks a conversion by molar mass, not a printed value. Read-outs that look alike come from different tables or passages of the source.

What was measured:
[1] = Aqueous solubility in PBS; type: physicochemical; conditions: phosphate buffered saline (PBS), aqueous buffer; PBS pH 7.4, room temperature (23° C.)
Procedure: PBS by definition is 137 mMNaCl, 2.7 mMKCl, 10 mM sodium phosphate dibasic, 2 mM potassium phosphate monobasic and a pH of 7.4.

[2] = test system: Ig-MXP3 cells; experiment: Direct cytotoxicity (Toxic Dose 50) without chemotherapeutic; type: cell-based; conditions: Ig-MXP3 cells, inhibitor without chemotherapeutic
[3] = target: T1, ABCB1 / ABCG2 (Homo sapiens, UniProt Q9UNQ0); experiment: JC-1 efflux inhibition dose response, flow cytometry, Ig-MXP3 cells; conditions: human, probe JC-1 (1 µM), ~Fold G2 Selective (B1/G2), quotient of average ABCB1 IC50 and average ABCG2 IC50, efflux assay
T1 sequence (Q9UNQ0 1-655): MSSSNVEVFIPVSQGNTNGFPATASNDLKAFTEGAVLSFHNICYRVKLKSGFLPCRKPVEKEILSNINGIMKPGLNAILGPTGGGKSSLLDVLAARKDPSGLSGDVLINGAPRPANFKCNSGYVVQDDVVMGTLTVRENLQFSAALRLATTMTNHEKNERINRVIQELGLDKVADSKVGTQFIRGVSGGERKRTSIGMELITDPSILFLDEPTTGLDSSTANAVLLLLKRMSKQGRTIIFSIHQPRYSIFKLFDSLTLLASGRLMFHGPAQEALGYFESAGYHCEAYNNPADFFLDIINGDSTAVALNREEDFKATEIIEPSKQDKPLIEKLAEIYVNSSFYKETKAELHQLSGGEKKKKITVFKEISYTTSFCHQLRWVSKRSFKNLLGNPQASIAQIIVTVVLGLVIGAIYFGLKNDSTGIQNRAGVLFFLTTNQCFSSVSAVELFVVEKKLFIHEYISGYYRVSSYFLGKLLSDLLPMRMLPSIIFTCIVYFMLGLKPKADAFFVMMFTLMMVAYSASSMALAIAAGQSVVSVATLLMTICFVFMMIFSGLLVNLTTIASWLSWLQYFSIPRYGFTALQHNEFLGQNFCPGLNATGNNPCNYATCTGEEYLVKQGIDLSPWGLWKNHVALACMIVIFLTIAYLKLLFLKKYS
Procedure, shortened: (§1)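 Ig-MXP3 (ABCG2) and Jurkat-DNR (ABCB1) cells, run separately, are pre-stained with 1 μM JC-1 and added to compound in PBS; retained dye is read by high-throughput flow cytometry with time-gated analysis.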

[4] = target: T2, ABCG2 (Homo sapiens, UniProt Q9UNQ0); experiment: as above
T2 sequence (Q9UNQ0 1-655): T1 sequence (Q9UNQ0 1-655)
Procedure, shortened: as §1

[5] = test system: Jurkat-DNR cells; experiment: Direct cytotoxicity (Toxic Dose 50) without chemotherapeutic; conditions: Jurkat-DNR cells, inhibitor without chemotherapeutic
Procedure: Cells (ABCB1, Jurkat-DNR or ABCG2 Ig-MXP3) are incubated with the test compound (3 order of magnitude concentration range) over a 3-day and 7-day period in the presence of the inhibitor and chemotherapeutic (ABCB1, DNR or ABCG2 MTX), such that a cell concentration of at least 1×10^5 cells/mL is maintained. Cell viability is determined by trypan blue staining and enumeration under light microscopy. […] A chemoreversal index (Chemoreversal 50, CR50) is determined from the viability assessment. Using a similar approach, a direct cytotoxicity index (Toxic Dose 50, TD50) is determined by assessment of cell death of cells grown in media alone.
Cells (ABCB1, Jurkat-DNR or ABCG2 Ig-MXP3) were incubated with the test compound in a 3 order of magnitude concentration range over three and seven day periods in the presence of the inhibitor and chemotherapeutic (ABCB1, 100 nM DNR or ABCG2 30 nM MTX), such that a cell concentration of at least 1×10^5 cells mL^−1 was maintained. Cell viability was determined by trypan blue staining and enumeration under light microscopy. […] A chemoreversal index (Chemoreversal 50, CR50) was determined from the viability assessment. Using a similar approach, a direct cytotoxicity index (Toxic Dose 50, TD50) was determined by assessment of cell death of cells grown in media alone.

[6] = Flow cytometric kinetic solubility; type: physicochemical; conditions: kinetic from dmso stock
From the text: Applying a flow cytometrickinetic solubility protocol,^65 we were also able to compare solubility across primary, secondary, and profiling buffer conditions in house. […] This is approximately three fold higher than reported above; however, our protocol uses 1% DMSO as compared to 0.1%. […] The presence of fetal bovine serum also affects compound availability and in the primary assay screening buffer (6.7% FBS in PBS, 1% DSMO) the precipitation was inhibited slightly with no particulate noted at 3 μg/mL. […] In general, we are confident that compound availability is sufficient for the concentration ranges discussed for this scaffold set in our described biological systems.

[7] = test system: ABCB1 over-expressing Jurkat-DNR cells; experiment: Chemoreversal assay: potentiation of daunorubicin (DNR) killing; type: cell-based; conditions: constant 100 nM DNR, varied inhibitor dose, read-out: CR50 ABCB1

O=C(c1ccoc1)N1CCN(c2cc(-c3ccco3)nc3cc(-c4ccccc4)nn23)CC1 [Compound 1, (4-(5-(furan-2-yl)-2-phenylpyrazolo[1,5-a]pyrimidin-7-yl)piperazin-1-yl)(furan-3-yl)methanone]
solubility [1]: 0.51 µg/mL (≈ 1.16 µM)
TD50 ABCG2 [2]: 18.30 µM
TD50 ABCG2 ([2]; listed as SID 88095709): 18.3 µM
selectivity ratio at 30 min [3]: 36
EC50 [4]: 130 nM
IC50 [4]: 130 ± 300 nM
fold higher potency in ABCG2 than the prior art Ko143 ([4]; JC-1 efflux reporter system): approximately 100 fold
~Fold G2 Selective (B1/G2) ([4]; quotient of average ABCB1 IC50 and average ABCG2 IC50, efflux assay): 35.8 fold
TD50 ABCB1 [5]: 5.52 µM
TD50 ABCB1 ([5]; listed as SID 88095709): 5.5 µM
solubility kinetic ([6]; PBS with 1% DMSO, pH 7.4, aqueous buffer, PBS alone, 1% DMSO, read-out: kinetic solubility): 2 µg/mL (≈ 4.55 µM)
solubility kinetic ([6]; growth media (RPMI with 10% FBS, 1% DMSO), plasma or biological fluid, read-out: kinetic solubility, no precipitate forming at): ≥ 6 µg/mL
solubility kinetic ([6]; primary assay screening buffer (6.7% FBS in PBS, 1% DMSO), plasma or biological fluid, read-out: kinetic solubility, no particulate noted at): ≥ 3 µg/mL
EC50 [7]: 550 nM
